Test results as given in ChEMBL document CHEMBL5543068, “Mitochondrial targeting derivatives of honokiol enhanced selective antitumor activity in NCI-H446 cells and decreased in vivo toxicity in Caenorhabditis elegans” (Eur J Med Chem, 2024).
One block for each compound: values may come before it.

What was measured:
[1] = Cytotoxicity against human HL7702 cells assessed as reduction in cell viability incubated for 48 hrs by MTT assay; format: toxicity, cell-based; details: HL7702 (L02) cells
A549 = assay: Antiproliferative activity against human A549 cells assessed as reduction in cell viability incubated for 48 hrs by MTT assay; format: functional, cell-based; details: A549, 48 h
[2] = Cytotoxicity against HBE (human bronchial epithelial) cells assessed as reduction in cell viability incubated for 48 hrs by MTT assay; format: toxicity, cell-based
NCI-H446 = assay: Antiproliferative activity against human NCI-H446 cells assessed as reduction in cell viability incubated for 48 hrs by MTT assay; format: functional, cell-based; details: NCI-H446, 48 h
HepG2 = assay: Antiproliferative activity against human HepG2 cells assessed as reduction in cell viability incubated for 48 hrs by MTT assay; format: functional, cell-based; details: HepG2, 48 h

SMILES: CCCCCCCCCCCCc1c2[n+](cc3c(OC)c(OC)ccc13)CCc1cc3c(cc1-2)OCO3
IC50 at 48 h [1]: 2.78 µM
IC50 (A549): 0.86 µM
IC50 at 48 h [2]: 1.23 µM
IC50 (NCI-H446): 0.65 µM
IC50 (HepG2): 2.72 µM

SMILES: C=CCc1ccc(OC(=O)Cc2c3[n+](cc4c(OC)c(OC)ccc24)CCc2cc4c(cc2-3)OCO4)c(-c2ccc(OC)c(CC=C)c2)c1
IC50 at 48 h [1]: 5 µM
IC50 (A549): 5.52 µM
IC50 at 48 h [2]: 8.14 µM
IC50 (NCI-H446): 3.22 µM
IC50 (HepG2): 2.67 µM

SMILES: C=CCc1ccc(OCCCCCCCCCCOC(=O)Cc2c3[n+](cc4c(OC)c(OC)ccc24)CCc2cc4c(cc2-3)OCO4)c(-c2ccc(OCCC)c(CC=C)c2)c1
IC50 at 48 h [1]: 3.96 µM
IC50 (A549): 4.32 µM
IC50 at 48 h [2]: 17.5 µM
IC50 (NCI-H446): 5.45 µM
IC50 (HepG2): 4.16 µM

SMILES: C=CCc1ccc(OCCCCCCOC(=O)Cc2c3[n+](cc4c(OC)c(OC)ccc24)CCc2cc4c(cc2-3)OCO4)c(-c2ccc(OC)c(CC=C)c2)c1
IC50 at 48 h [1]: 5.7 µM
IC50 (A549): 3.44 µM
IC50 at 48 h [2]: 7.06 µM
IC50 (NCI-H446): 3.37 µM
IC50 (HepG2): 2.39 µM

SMILES: C=CCc1ccc(OCCCOC(=O)Cc2c3[n+](cc4c(OC)c(OC)ccc24)CCc2cc4c(cc2-3)OCO4)c(-c2ccc(OCCC)c(CC=C)c2)c1
IC50 at 48 h [1]: 2.6 µM
IC50 (A549): 5.82 µM
IC50 at 48 h [2]: 9.5 µM
IC50 (NCI-H446): 3.74 µM
IC50 (HepG2): 3.87 µM

SMILES: CCCOC(=O)Cc1c2[n+](cc3c(OC)c(OC)ccc13)CCc1cc3c(cc1-2)OCO3
IC50 at 48 h [1]: > 30 µM
IC50 (A549): 15.9 µM
IC50 at 48 h [2]: > 30 µM
IC50 (NCI-H446): > 10 µM
IC50 (HepG2): > 30 µM

SMILES: CCCCCCCCc1c2[n+](cc3c(OC)c(OC)ccc13)CCc1cc3c(cc1-2)OCO3
IC50 at 48 h [1]: 14.7 µM
IC50 (A549): 1.72 µM
IC50 at 48 h [2]: 0.79 µM
IC50 (NCI-H446): 2.65 µM
IC50 (HepG2): 18.7 µM

SMILES: C=CCc1ccc(OCCCOC(=O)Cc2c3[n+](cc4c(OC)c(OC)ccc24)CCc2cc4c(cc2-3)OCO4)c(-c2ccc(OC)c(CC=C)c2)c1
IC50 at 48 h [1]: 6.5 µM
IC50 (A549): > 10 µM
IC50 at 48 h [2]: 19.4 µM
IC50 (NCI-H446): 7.08 µM
IC50 (HepG2): 6.6 µM

SMILES: CCCCCCCCCCc1c2[n+](cc3c(OC)c(OC)ccc13)CCc1cc3c(cc1-2)OCO3
IC50 at 48 h [1]: 3.8 µM
IC50 (A549): 1.18 µM
IC50 at 48 h [2]: 1.52 µM
IC50 (NCI-H446): 0.83 µM
IC50 (HepG2): 13.3 µM

SMILES: C=CCc1ccc(OCCCCCCOC(=O)Cc2c3[n+](cc4c(OC)c(OC)ccc24)CCc2cc4c(cc2-3)OCO4)c(-c2ccc(OCCC)c(CC=C)c2)c1
IC50 at 48 h [1]: 5.7 µM
IC50 (A549): 3.41 µM
IC50 at 48 h [2]: 7.08 µM
IC50 (NCI-H446): 2.37 µM
IC50 (HepG2): 1.82 µM

SMILES: C=CCc1ccc(OCCC)c(-c2ccc(OCCCCCCOC(=O)Cc3c4[n+](cc5c(OC)c(OC)ccc35)CCc3cc5c(cc3-4)OCO5)c(CC=C)c2)c1
IC50 at 48 h [1]: 4.28 µM
IC50 (A549): 1.59 µM
IC50 at 48 h [2]: 3.59 µM
IC50 (NCI-H446): 1.56 µM
IC50 (HepG2): 1.38 µM

SMILES: C=CCc1ccc(OCCC)c(-c2ccc(OCCCOC(=O)Cc3c4[n+](cc5c(OC)c(OC)ccc35)CCc3cc5c(cc3-4)OCO5)c(CC=C)c2)c1
IC50 at 48 h [1]: 3.39 µM
IC50 (A549): 3.5 µM
IC50 at 48 h [2]: 6.7 µM
IC50 (NCI-H446): 2.44 µM
IC50 (HepG2): 2.23 µM

SMILES: C=CCc1ccc(OC)c(-c2ccc(OC(=O)Cc3c4[n+](cc5c(OC)c(OC)ccc35)CCc3cc5c(cc3-4)OCO5)c(CC=C)c2)c1
IC50 at 48 h [1]: 4.21 µM
IC50 (A549): 5.5 µM
IC50 at 48 h [2]: 16.1 µM
IC50 (NCI-H446): 4.72 µM
IC50 (HepG2): 2.85 µM

SMILES: C=CCc1ccc(OCCC)c(-c2ccc(OC(=O)Cc3c4[n+](cc5c(OC)c(OC)ccc35)CCc3cc5c(cc3-4)OCO5)c(CC=C)c2)c1
IC50 at 48 h [1]: 3.39 µM
IC50 (A549): 5.98 µM
IC50 at 48 h [2]: 17.9 µM
IC50 (NCI-H446): 5.06 µM
IC50 (HepG2): 3.02 µM

SMILES: C=CCc1ccc(OC)c(-c2ccc(OCCCCCCOC(=O)Cc3c4[n+](cc5c(OC)c(OC)ccc35)CCc3cc5c(cc3-4)OCO5)c(CC=C)c2)c1
IC50 at 48 h [1]: 4.37 µM
IC50 (A549): 2.87 µM
IC50 at 48 h [2]: 5.09 µM
IC50 (NCI-H446): 1.4 µM
IC50 (HepG2): 1.74 µM

SMILES: C=CCc1ccc(OC(=O)Cc2c3[n+](cc4c(OC)c(OC)ccc24)CCc2cc4c(cc2-3)OCO4)c(-c2ccc(OCCC)c(CC=C)c2)c1
IC50 at 48 h [1]: 3.8 µM
IC50 (A549): 4.12 µM
IC50 at 48 h [2]: 7.08 µM
IC50 (NCI-H446): 5.17 µM
IC50 (HepG2): 2.23 µM

SMILES: CCCCCCCCCCOC(=O)Cc1c2[n+](cc3c(OC)c(OC)ccc13)CCc1cc3c(cc1-2)OCO3
IC50 at 48 h [1]: 3.83 µM
IC50 (A549): 1.53 µM
IC50 at 48 h [2]: 4.35 µM
IC50 (NCI-H446): 1.72 µM
IC50 (HepG2): 4.23 µM

SMILES: C=CCc1ccc(OCCC)c(-c2ccc(OCCCCCCCCCCOC(=O)Cc3c4[n+](cc5c(OC)c(OC)ccc35)CCc3cc5c(cc3-4)OCO5)c(CC=C)c2)c1
IC50 at 48 h [1]: 4.39 µM
IC50 (A549): 6.21 µM
IC50 at 48 h [2]: 10.7 µM
IC50 (NCI-H446): 7.87 µM
IC50 (HepG2): 7.89 µM

SMILES: C=CCc1ccc(OC)c(-c2ccc(OCCCCCCCCCCOC(=O)Cc3c4[n+](cc5c(OC)c(OC)ccc35)CCc3cc5c(cc3-4)OCO5)c(CC=C)c2)c1
IC50 at 48 h [1]: 2.01 µM
IC50 (A549): 2.7 µM
IC50 at 48 h [2]: 5.01 µM
IC50 (NCI-H446): 1.57 µM
IC50 (HepG2): 2.4 µM

SMILES: C=CCc1ccc(OCCCCCCCCCCOC(=O)Cc2c3[n+](cc4c(OC)c(OC)ccc24)CCc2cc4c(cc2-3)OCO4)c(-c2ccc(OC)c(CC=C)c2)c1
IC50 at 48 h [1]: 5 µM
IC50 (A549): 1.88 µM
IC50 at 48 h [2]: 5.83 µM
IC50 (NCI-H446): 3.01 µM
IC50 (HepG2): 1.94 µM

Continued, in another order:

IC50 (A549): 3.27 µM
IC50 (NCI-H446): 3.29 µM
IC50 (HepG2): 1.75 µM
SMILES: C=CCc1ccc(OCCC[n+]2ccc(/C=C/c3c[nH]c4ccccc34)cc2)c(-c2ccc(OC)c(CC=C)c2)c1
IC50 at 48 h [1]: 4.62 µM
IC50 at 48 h [2]: 9.84 µM

IC50 (A549): 8.07 µM
IC50 (NCI-H446): 7.57 µM
IC50 (HepG2): 5.23 µM
SMILES: C=CCc1ccc(OCCCCCCCCCC[n+]2ccc(/C=C/c3c[nH]c4ccccc34)cc2)c(-c2ccc(OCCC)c(CC=C)c2)c1
IC50 at 48 h [1]: 6.98 µM
IC50 at 48 h [2]: 17.3 µM

IC50 (A549): 3.38 µM
IC50 (NCI-H446): 3.02 µM
IC50 (HepG2): 2.68 µM
SMILES: C=CCc1ccc(OC)c(-c2ccc(OCCCCCC[n+]3ccc(/C=C/c4c[nH]c5ccccc45)cc3)c(CC=C)c2)c1
IC50 at 48 h [1]: 3.56 µM
IC50 at 48 h [2]: 20.4 µM

IC50 (A549): 5.69 µM
IC50 (NCI-H446): 3.01 µM
IC50 (HepG2): 3.37 µM
SMILES: C=CCc1ccc(OCCCCCCCCCC[n+]2ccc(/C=C/c3c[nH]c4ccccc34)cc2)c(-c2ccc(OC)c(CC=C)c2)c1
IC50 at 48 h [1]: 4.03 µM
IC50 at 48 h [2]: 7.47 µM

IC50 (A549): 2.54 µM
IC50 (NCI-H446): 2.7 µM
IC50 (HepG2): 1.79 µM
SMILES: C=CCc1ccc(OCCCCCC[n+]2ccc(/C=C/c3c[nH]c4ccccc34)cc2)c(-c2ccc(OC)c(CC=C)c2)c1
IC50 at 48 h [1]: 3.88 µM
IC50 at 48 h [2]: 6.17 µM

IC50 (A549): > 60 µM
IC50 (NCI-H446): > 60 µM
IC50 (HepG2): > 60 µM
SMILES: C[n+]1ccc(/C=C/c2c[nH]c3ccccc23)cc1
IC50 at 48 h [1]: > 60 µM
IC50 at 48 h [2]: > 60 µM

IC50 (A549): > 50 µM
IC50 (NCI-H446): > 50 µM
IC50 (HepG2): > 50 µM
SMILES: COc1ccc2cc3[n+](cc2c1OC)CCc1cc2c(cc1-3)OCO2 [BERBERINE CHLORIDE]
IC50 at 48 h [1]: > 50 µM
IC50 at 48 h [2]: > 50 µM

IC50 (A549): 5.32 µM
IC50 (NCI-H446): 6.34 µM
IC50 (HepG2): 4.53 µM
SMILES: C=CCc1ccc(OC)c(-c2ccc(OCCC[n+]3ccc(/C=C/c4c[nH]c5ccccc45)cc3)c(CC=C)c2)c1
IC50 at 48 h [1]: 8.12 µM
IC50 at 48 h [2]: 20.4 µM

IC50 (A549): 9.45 µM
IC50 (NCI-H446): 6.51 µM
IC50 (HepG2): 8.13 µM
SMILES: C=CCc1ccc(OCCC)c(-c2ccc(OCCCCCCCCCC[n+]3ccc(/C=C/c4c[nH]c5ccccc45)cc3)c(CC=C)c2)c1
IC50 at 48 h [1]: 12.3 µM
IC50 at 48 h [2]: 16.5 µM

IC50 (A549): 10.6 µM
IC50 (NCI-H446): 5.21 µM
IC50 (HepG2): 2.73 µM
SMILES: C=CCc1ccc(OC)c(-c2ccc(OCCCCCCCCCC[n+]3ccc(/C=C/c4c[nH]c5ccccc45)cc3)c(CC=C)c2)c1
IC50 at 48 h [1]: 7.09 µM
IC50 at 48 h [2]: 13.5 µM

IC50 (A549): 1.69 µM
IC50 (NCI-H446): 1.74 µM
IC50 (HepG2): 1.14 µM
SMILES: C=CCc1ccc(OCCC[n+]2ccc(/C=C/c3c[nH]c4ccccc34)cc2)c(-c2ccc(OCCC)c(CC=C)c2)c1
IC50 at 48 h [1]: 1.77 µM
IC50 at 48 h [2]: 9.47 µM
